Source: patent US9732091B2, “Tryptophanol-derived oxazoloisoindolinones: small-molecule P53 activators” (UNIVERSIDADE DO PORTO, priority 2013, dated 2017)

How the values were obtained:
[1] = Rippin et al. 2002; Jonhson et al. 2011; cited from earlier work
[2] = tested on: MDA-MB-231 cells; experiment: apoptosis by flow cytometry (FITC-Annexin V and propidium iodide), MDA-MB-231; type: cell-based, human; settings: GI50, 24 hours
Description: (§1) Apoptosis was analyzed by flow cytometry using FITC-Annexin V and propidium iodide. The effect of compounds was analyzed after 24 hours treatment using the concentration of GI50. Histograms represent one of two independent experiments; quantification of cells in apoptosis represents the mean±S.E.M. of two independent experiments.

[3] = tested on: MDA-MB-231 (p53R280K); experiment: SRB growth inhibition assay in MDA-MB-231 breast cancer cells; type: cell-based, human; settings: 48 hours incubation, mean±S.E.M.
Description: (§2) Tumor cells were plated at 7.5×10^3 cells/well in 96-well plates and incubated for 24 hours. Cells were then exposed to serial dilutions of SLMP53-1, CP-31398 or PRIMA-1 (from 1.85 to 150 μM). The effect of the compounds was analyzed following 48 hours incubation period, using the sulforhodamine B (SRB) assay. The solvent DMSO corresponding to the maximum concentration used in these assays (0.025%) was included as control. The GI50 value, which is the concentration of compound that causes 50% growth inhibition, was calculated for the tested compounds. Results are the mean±S.E.M. of three independent experiments.

[4] = tested on: HCT116 p53^+/+ cells; experiment: cell cycle analysis by flow cytometry (propidium iodide), HCT116 p53^+/+; type: cell-based, human; settings: double GI50, 24 hours
Description: FIG. 3 illustrates the effect of SLMP53-1 on cell cycle progression of HCT116 p53^+/+ cells. Cell cycle phases were analyzed by flow cytometry using propidium iodide and quantified using ModFit LT software (Verity Software House Inc., Topsham, USA). Effect of compounds (double GI50) was analyzed after 24 hours treatment. Histograms represent one of two independent experiments; quantification of cell cycle phases represents the mean±S.E.M. of two independent experiments.

[5] = tested on: HCT116 p53^−/−; experiment: SRB growth inhibition assay in HCT116 p53^−/− colon carcinoma cells; type: cell-based, human; settings: 48 hours incubation, mean±S.E.M.
Description: as §2, with “5.0×10^3” for “7.5×10^3”, “incubation,” for “incubation period,”, “value,” for “value, which is”

[6] = tested on: HCT116 p53^+/+; experiment: SRB growth inhibition assay in HCT116 p53^+/+ colon carcinoma cells; type: cell-based, human; settings: for GI50: HCT116 p53^+/+, 48 hours incubation, SRB, mean±S.E.M.
Description: as §2, with “5.0×10^3” for “7.5×10^3”, “incubation,” for “incubation period,”, “value,” for “value, which is”

[7] = tested on: HCT116 p53^+/+ cells; experiment: apoptosis by flow cytometry (FITC-Annexin V and propidium iodide), HCT116 p53^+/+; type: cell-based, human; settings: GI50 and double GI50, 24 hours
Description: as §1, with “concentration of GI50 and double GI50. Histograms” for “concentration of GI50. Histograms”

[8] = target: T1, human wt p53 (Homo sapiens, UniProt P04637); experiment: yeast-based assay, yeast cells expressing human wt p53 (growth by CFU counts, cell cycle, actin Western blot)
T1 construct: expressed in transfected cells
Description: FIG. 1 illustrates that SLMP53-1 and SLMP53-2 increase the p53 effects in yeast. Yeast cells expressing human wt p53 and transformed with the empty vector (control yeast) were incubated in selective induction medium in the presence of 0.1-25 μM compound or DMSO only, for 42 hours. (A) Effect of 10 μM SLMP53-1 and SLMP53-2 on the p53-induced yeast growth inhibition. Results are plotted setting as one unit the p53-induced growth inhibition in the presence of DMSO only. Growth was estimated by colony-forming unit (CFU) counts. […] (B) Dose-response curve for SLMP53-1 in yeast cells expressing human p53 and control yeast. Cells were incubated in selective medium with 0.1-25 μM of SLMP53-1 or DMSO only. Results are plotted setting as 100% growth inhibition the number of CFU obtained in the presence of DMSO only. Data are mean±S.E.M. of three independent experiments (*P<0.05; unpaired Student's t-test). (C) Effect of SLMP53-1 and SLMP53-2 on p53-induced S-phase cell cycle arrest in yeast. Cell cycle phases were analyzed by flow cytometry using Sytox Green and quantified using ModFit LT software; quantification of cell cycle phases represent the mean values. (D) Increase of p53-induced actin protein expression levels by SLMP53-1 and SLMP53-2 in yeast expressing p53. Western Blot band intensity was quantified using Pgk1p as loading control (with Bio-Profile Bio-1D++ software).
Using a yeast-based screening approach, the chiral compounds SLMP53-1 and SLMP53-2 were identified as potential activators of wt p53, from a chemical library of tryptophanol-derived oxazoloisoindolinones with general formula (I) shown in FIG. 1, wherein X, R^1, R^2, R^3, R^4, R^5, R^6, R^7, R^8, R^9 and R^10 are as defined herein, as well as their stereoisomers, enantiomers, ra.cemates, tautomers thereof or mixtures thereof; or a pharmaceutically acceptable salt, solvate or prodrug thereof. In the yeast cell model, compounds SLMP53-1 and SLMP53-2 increased the previously reported (Coutinho et al. FEBS Lett. 2009, 583, 3582-3588) p53-induced growth inhibition (FIGS. 1A and B) and S-phase cell cycle arrest (FIG. 1C).

[9] = HCT116 p53^+/+ vs HCT116 p53^−/−

T1 sequence (P04637 whole entry): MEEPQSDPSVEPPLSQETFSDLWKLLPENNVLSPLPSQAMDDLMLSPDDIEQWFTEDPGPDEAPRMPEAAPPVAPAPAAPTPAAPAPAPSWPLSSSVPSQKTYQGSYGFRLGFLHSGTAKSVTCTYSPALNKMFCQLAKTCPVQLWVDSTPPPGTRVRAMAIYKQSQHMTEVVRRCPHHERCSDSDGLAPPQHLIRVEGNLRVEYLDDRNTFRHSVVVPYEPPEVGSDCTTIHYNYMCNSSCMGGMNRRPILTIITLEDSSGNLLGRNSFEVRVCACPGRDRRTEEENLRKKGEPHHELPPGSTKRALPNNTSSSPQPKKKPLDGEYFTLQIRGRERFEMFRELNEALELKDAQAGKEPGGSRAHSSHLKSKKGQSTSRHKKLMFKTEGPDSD

GI50 in HCT116 p53^+/+ cells lower than in HCT116 p53^−/− cells [6, 9] [fold] | p53-induced growth inhibition ([8]; yeast expressing human wt p53, 10 μM, 42 hours, vs DMSO only) | p53-induced S-phase cell cycle arrest ([8]; yeast expressing human wt p53, flow cytometry) | actin protein levels ([8]; yeast expressing p53, Western blot, vs DMSO only) | Compound | cytotoxic and genotoxic effects (reported) [1] | apoptosis [2] | GI50 [3] [µM] | cell cycle progression [4] | GI50 [5] [µM] | p53 dependence of anti-proliferative effect [6, 9] | GI50 [6] [µM] | apoptosis [7]
2 | – | – | – | COc1ccc(/C=C/c2nc(NCCCN(C)C)c3ccccc3n2)cc1 [CP-31398] | cytotoxic and genotoxic effects have been reported | apoptotic cell death | 2.3 ± 0.9 | G0/G1-phase cell arrest | 7.3 ± 0.6 | p53-dependent anti-proliferative effect | 3.4 ± 0.1 | apoptotic cell death
– | – | – | – | O=C1C2CCN(CC2)C1(CO)CO [PRIMA-1] | – | apoptotic cell death | 29.8 ± 3.1 | – | 13.1 ± 2 | p53-independent | 19.9 ± 4 | –
– | increased | increased | increased the actin protein levels | C[C@@]12OC[C@@H](Cc3c[nH]c4ccccc34)N1C(=O)c1ccccc12 [SLMP53-2] | – | – | – | – | – | – | – | –
